From PMC8998618, “A Pharmacokinetic and Metabolism Study of the TRPC6 Inhibitor SH045 in Mice by LC-MS/MS” (International Journal of Molecular Sciences, 2022)
Read-outs that look alike come from different tables or passages of the source.

Assay: plasma pharmacokinetics after single i.v. and p.o. administration, NCA
Type: in vivo, mice
Details: for increase in AUCinf with 10-fold dosing / increase in cmax with 10-fold dosing: 20 vs 2 mg/kg BW; for Cmax / Tmax / AUC(0-inf) / AUC(0-t) / MRT / half-life / bioavailability / CL/F / Vd/F / AUCextra / Vz/F: plasma; for bioavailability: from AUCinf, read-out: oral bioavailability (F); for Vd/F: read-out: Vz/F
Description: Analysis of SH045 in samples from plasma, tissue, urine, and microsomal incubations was performed as previously described. Details are described in Supplementary Materials SM2.
Male C57BL/6 mice (25–30 g BW, Charles River, Sulzfeld, Germany) housed in groups under standard conditions and allowed access to lab chow and water ad libitum were used. The in vivo experiments were performed according to the national regulations of animal welfare and were ethically approved by the local committee on animal welfare and the local authorities. Animal experiments were performed under strict consideration of the 3R principles, fully complying with the ARRIVE guidelines. For single SH045 administration mice were assigned to four groups of 12 animals each: 2 and 20 mg/kg BW applied via the i.v. and the p.o. route, respectively. Due to the recommended limited volume for blood collection, each mouse was assigned to a maximum of five different time points each out of 8 (for p.o.) and 9 (for i.v.) for blood collection resulting in six independent plasma concentration values per time point.
SH045 was freshly prepared with DMSO (final concentration 0.5%) and Kolliphor® EL (5% in water). At 7:00 a.m., one hour before drug administration, food was removed. For oral gavage and for i.v. administration into the tail vein the respective dose was applied in a volume of 3 mL/kg BW.
Via heparin-coated catheters a maximum of 50 µL blood was collected from the tail vein at 0.25, 0.5, 1, 2, 3, 4, 6, 8, or 24 h after administration and immediately centrifuged at 4000× g at 4 °C for 10 min. For repeated administration 20 mg/kg BW SH045 were administered at 8:00 a.m. on five consecutive days, once a day. Blood was taken 1 h and 24 h after drug administration. Tissue samples were harvested from isoflurane-euthanized animals at indicated time points. Mice were transcardially perfused with PBS and dissected tissues were washed to remove remaining blood. Plasma and tissue samples were stored at −80 °C until analysis. Urine was collected by bladder puncture at indicated time points.
Pharmacokinetics parameters for SH045 were determined based on non-compartmental model analysis (NCA) using the Phoenix WinNonlin Software 8.3 (Certara, Princeton, NJ, USA). The slope of the terminal phase of the SH045 concentration-time profile (λz) was estimated as absolute values from ≥3 data points using a log-linear regression analysis. The area under the concentration-time curve (AUC) for the time (t) providing the final measurable concentration (AUClast) was calculated using the mixed log-linear trapezoidal rule (linear up, log down). The AUCinf was computed as AUClast + Clast/λz, where the estimated value of the latest data point is used. The systemic total body clearance from plasma (CLp) was calculated as applied dose divided by AUCinf. MRT was calculated as AUMCinf/AUCinf, where area under the first moment curve (AUMC) was defined as area under the curve of the product of time and the plasma drug concentration versus time from zero to infinity. Finally, the AUCextra extrapolates the AUC from the last measured time point to infinity. Vz, the apparent volume of distribution during terminal elimination phase was calculated by Vz = Dose/AUCinf × λz, where λz is the plasma elimination rate constant. The apparent volume of distribution during the terminal phase following extravascular administration based on the fraction of dose absorbed Vz/F = Dose/(AUCinf × λz). The bioavailability (F) of two oral doses SH045 doses were calculated with reference to identical doses administered by intravenous bolus application of SH045 as follows: F = AUCoral/AUCi.v. Tissue binding of SH045 was analyzed exemplarily in lung, liver and kidney homogenate using ultrafiltration. The concentration in the filtrate refers to the unbound SH045 concentration according to tissue binding (%) = (ctot − cfiltrate)/ctotal × 100. For details see Supplementary Materials SM5.

[1] = male, C57BL/6, mouse, iv, mice, single 2.0 mg/kg BW i.v.
[2] = male, C57BL/6, mouse, iv, mice, single 2.0 mg/kg BW i.v., NCA
[3] = male, C57BL/6, mouse, iv, mice, single 20 mg/kg BW i.v.
[4] = male, C57BL/6, mouse, iv, mice, single 20 mg/kg BW i.v., NCA
[5] = male, C57BL/6, mouse, po, mice, single 2.0 mg/kg BW p.o.
[6] = male, C57BL/6, mouse, po, mice, single 2.0 mg/kg BW p.o., NCA
[7] = male, C57BL/6, mouse, po, mice, single 20 mg/kg BW p.o.
[8] = male, C57BL/6, mouse, po, mice, single 20 mg/kg BW p.o., NCA
[9] = mice, single 2.0 mg/kg BW i.v., NCA
[10] = mice, single 20 mg/kg BW i.v., NCA

total body clearance following oral administration with regard to oral bioavailability (2 mg/kg p.o.): 95 mL/min/kg
time up to which SH045 is measurable in plasma (20 mg/kg BW i.v.): up to 24 h
corresponding drug plasma concentration (20 mg/kg BW i.v., corresponding to urine period 10–30 min): 3035 nM
corresponding drug plasma concentration (20 mg/kg BW i.v., corresponding to urine period 60–80 min): 1655 nM
corresponding drug plasma concentration (20 mg/kg BW i.v., corresponding to urine period 100–120 min): 560 nM
accumulation of SH045 in plasma after repeated administration (20 mg/kg i.v. five times once a day, 1 and 24 h after the last injection): no accumulation
AUCextra percentage, simulated recalculation including late low concentration values (20 mg/kg i.v., NCA): 0.8%
total body clearance following oral administration with regard to oral bioavailability (20 mg/kg p.o.): 117 mL/min/kg
increase in AUCinf with 10-fold dosing (i.v.): 8.1 fold
increase in cmax with 10-fold dosing (i.v.): 6.5 fold
Cmax [1]: 369 ng/mL
Tmax [1]: 0.25 h
AUC(0-inf) [2]: 351 ng·h/mL
AUC(0-t) [2]: 338 ng·h/mL
MRT [2]: 0.75 h
half-life (male, C57BL/6, mouse, iv, mice, single 2.0 mg/kg BW i.v., NCA, read-out: t1/2 (converted)): 1.28 h
Cmax [3]: 2390 ng/mL
Tmax [3]: 0.25 h
AUC(0-inf) [4]: 2840 ng·h/mL
AUC(0-t) [4]: 2720 ng·h/mL
MRT [4]: 1.52 h
half-life (male, C57BL/6, mouse, iv, mice, single 20 mg/kg BW i.v., NCA, read-out: t1/2 (converted)): 2.37 h
half-life (male, C57BL/6, mouse, intravenous, oral, range over both doses and routes, read-out: mean half-life (t1/2)): 1.2 to 2.4 h
bioavailability (male, C57BL/6, mouse, po, 2 mg/kg p.o.): 24%
bioavailability (male, C57BL/6, mouse, po, 20 mg/kg p.o.): 11%
Cmax [5]: 68.3 ng/mL
Tmax [5]: 0.5 h
AUC(0-inf) [6]: 84.2 ng·h/mL
AUC(0-t) [6]: 69 ng·h/mL
MRT [6]: 1.78 h
CL/F (male, C57BL/6, mouse, po, mice, single 2.0 mg/kg BW p.o., NCA, read-out: CL/F): 396 mL/min/kg
Vd/F [6]: 39.5 L/kg
half-life (male, C57BL/6, mouse, po, mice, single 2.0 mg/kg BW p.o., NCA, read-out: t1/2 (converted)): 1.15 h
Cmax [7]: 341 ng/mL
Tmax [7]: 0.5 h
AUC(0-inf) [8]: 314 ng·h/mL
AUC(0-t) [8]: 298 ng·h/mL
MRT [8]: 1.68 h
CL/F (male, C57BL/6, mouse, po, mice, single 20 mg/kg BW p.o., NCA, read-out: CL/F): 1060 mL/min/kg
Vd/F [8]: 171 L/kg
half-life (male, C57BL/6, mouse, po, mice, single 20 mg/kg BW p.o., NCA, read-out: t1/2 (converted)): 1.86 h
AUCextra [9]: 3.7%
CL/F [9]: 94.9 mL/min/kg
Vz/F [9]: 10.5 L/kg
AUCextra (mice, single 2.0 mg/kg BW p.o., NCA): 17.5%
AUCextra [10]: 4.2%
CL/F [10]: 117.2 mL/min/kg
Vz/F [10]: 24.0 L/kg
AUCextra (mice, single 20 mg/kg BW p.o., NCA): 5.0%
F (mice, single 2.0 mg/kg BW i.v. (reference route)): 1.0
F (mice, single 2.0 mg/kg BW p.o., F = AUCoral/AUCi.v.): 0.24
F (mice, single 20 mg/kg BW i.v. (reference route)): 1.0
F (mice, single 20 mg/kg BW p.o., F = AUCoral/AUCi.v.): 0.11
increase in AUCinf with 10-fold dosing (oral): 3.7 fold
increase in cmax with 10-fold dosing (oral): 5.0 fold
time up to which SH045 is measurable in plasma (orally): up to 6 h
Compound: C=C[C@@](C)(O)CC[C@H]1C(=C)C[C@H](OC(=O)NC)[C@H]2C(C)(C)CCC[C@]12C [SH045, (1S,4S,4aR,8aS)-4-((S)-3-Hydroxy-3-methylpent-4-en-1-yl)-4a,8,8-trimethyl-3-methylenedecahydronaphthalen-1-yl methylcarbamate]
